Data set [1] can be described thus: In-vitro half-life in human liver microsomes. The note with it: Human liver microsomes 0.5 mg/mL; 1 μg/mL drug; NRS; read-out: Metabolic Half-life. Type of data set: in vitro ADME. How it is done: In each of the species (human, rat, mouse) of liver matrix to be tested, a working concentration of 2 μg/mL was prepared of each test article from the 0.5 mg/mL DMSO stock solution by adding 3 μL of 0.5 mg/mL test article stock solution to 747 μL of the 1 mg/mL liver matrix. Incubation was performed at 37±2° C. with gentle, continuous mixing in shaking water bath in 2.0 mL-well capacity 96-Deepwell plates (96-DWP). Samples were retrieved in duplicate at the following time points: 0, 5, 10, 15, 30 and 60 minutes. The final mixture contained 1 μg/mL of drug and 0.5 mg/mL of liver matrix. First, 50 μL of test articles in liver matrix was added to the 96-DWP and pre-warmed the mixture in the 96-DWP for 2 minutes in the 37° C. water bath. The enzymatic reaction was started by the addition of 50 μL of the corresponding 2× NADPH regenerating system (NRS) cofactor solution to all sample wells and stopped by the addition of 300 μL of stop solution (acetonitrile containing 10 ng/mL Tolbutamide as an internal standard (I.Std.). The samples were agitated for 10 minutes and then centrifuged for 20 minutes at 4500 rpm. 25 μL of supernatant was diluted with 475 μL acetonitrile containing I. Std. into a new 96-DWPs for LC-MS/MS analysis.
Half-life calculations were generated and calculated by Graphpad Prism® software. The half-life of test compound was calculated based on the first-order reaction kinetics. The data was transformed to linear regression (y=log(y) where “y” axis represents the % compound remaining at any given time with respect to time 0 minutes; “x” axis represents time in minutes) in order to calculate the half-life.
A comparison of metabolic stability in time-course incubation experiments in varying species of liver can provide information of pharmacokinetic properties of drugs attributable to species-related differences in hepatic metabolism. The results of these experiments often assist in further applications such as assessing in vitro metabolite profiling and choosing relevant species for toxicology studies based on similarities relative to the metabolic stability to the human profile. For these experiments, the test compound was tested in parallel with a positive control, Dasatinab, in an enzymatic reaction solution of each species (human and rat) of liver microsomes containing a NADPH regenerating system (NRS). The final mixture contained 1 μg/mL of drug and 0.5 mg/mL of liver matrix. Incubations were performed at 37±2° C. with gentle, continuous mixing in shaking water bath in 96-Deep well plates. The stability of the test compound is monitored using fast, specific and sensitive LC/MS/MS analysis.

The nature of the next data set: PAMPA permeability. The note with it: PAMPA, 5 hours at RT.
The mark [2] stands for this setting: PAMPA permeability Classification, 20 μM donor.
[3] abbreviates: Permeability, Pe, 20 μM donor in PBS/MeOH 90:10.

For orientation: half-life means the time needed for the level to fall by half in the phase considered. Broadly, the Papp is a coefficient for how fast a substance crosses the barrier. Read a low Papp as slow passage.

For `COc1cc2c(NC3CCOCC3)nc(N3CCCC3)nc2cc1OCCCN1CCCC1` [Compound 164, 6-methoxy-2-(pyrrolidin-1-yl)-7-(3-(pyrrolidin-1-yl)propoxy)-N-(tetrahydro-2H-pyran-4-yl)quinazolin-4-amine], in data set [1], the half-life at 1 μg/mL was more than 1 h. Moreover, the apparent permeability (Papp) at 5 h, 20 μM was less than 0.055 ×10⁻⁶ cm/s in the data set “PAMPA permeability” (setting [2]) and 0.0476 ×10⁻⁶ cm/s in “PAMPA permeability” (setting [3]).
On to `COc1cc2c(NC3CCOCC3)nc(N3CCC3)nc2cc1OCCCN1CCCC1` [Compound 174, 2-(azetidin-1-yl)-6-methoxy-7-(3-(pyrrolidin-1-yl)propoxy)-N-(tetrahydro-2H-pyran-4-yl)quinazolin-4-amine], for which the half-life at 1 μg/mL in data set [1] is more than 1 h. In addition, the Papp at 5 h, 20 μM was 0.055 to 1.5 ×10⁻⁶ cm/s in “PAMPA permeability” (setting [2]) and 0.0754 ×10⁻⁶ cm/s in the data set “PAMPA permeability” (setting [3]).
`COc1cc2c(NC3CCOCC3)nc(N3CCOCC3)nc2cc1OCCCN1CCCC1` [Compound 195, 6-methoxy-2-morpholino-7-(3-(pyrrolidin-1-yl)propoxy)-N-(tetrahydro-2H-pyran-4-yl)quinazolin-4-amine]: in data set [1], the half-life at 1 μg/mL is more than 1 h. The Papp at 5 h, 20 μM in “PAMPA permeability” (setting [2]) was 0.055 to 1.5 ×10⁻⁶ cm/s; in the data set “PAMPA permeability” (setting [3]), 0.238 ×10⁻⁶ cm/s.
On the same counts, the results for `COc1cc2c(NC3CCOCC3)nc(N3CCS(=O)(=O)CC3)nc2cc1OCCCN1CCCC1` [Compound 196, 4-(6-methoxy-7-(3-(pyrrolidin-1-yl)propoxy)-4-((tetrahydro-2H-pyran-4-yl)amino)quinazolin-2-yl)thiomorpholine 1,1-dioxide] are more than 1 h, less than 0.055 ×10⁻⁶ cm/s and 0.035 ×10⁻⁶ cm/s.
Regarding `COc1cc2c(NC3CCN(C(C)C)CC3)nc(N3CCC3)nc2cc1OCCCN1CCCC1` [Compound 234, 2-(azetidin-1-yl)-N-(1-isopropylpiperidin-4-yl)-6-methoxy-7-(3-(pyrrolidin-1-yl)propoxy)quinazolin-4-amine], the half-life at 1 μg/mL in data set [1] was more than 1 h. Besides, the Papp at 5 h, 20 μM was less than 0.055 ×10⁻⁶ cm/s in the data set “PAMPA permeability” (setting [2]) and 0.000285 ×10⁻⁶ cm/s in the data set “PAMPA permeability” (setting [3]).
For `COc1cc2c(NC3CCN(C(C)C)CC3)nc(C#N)nc2cc1OCCCN1CCCC1` [Compound 235, 4-((1-isopropylpiperidin-4-yl)amino)-6-methoxy-7-(3-(pyrrolidin-1-yl)propoxy)quinazoline-2-carbonitrile], in data set [1], the half-life at 1 μg/mL was more than 1 h. Further, the Papp at 5 h, 20 μM is less than 0.055 ×10⁻⁶ cm/s in the data set “PAMPA permeability” (setting [2]) and 0.0046 ×10⁻⁶ cm/s in “PAMPA permeability” (setting [3]).
Consider `COc1cc2c(NC3CCOCC3)nc(N3CCN(C)CC3)nc2cc1OCCCN1CCCC1` [Compound 236, 6-methoxy-2-(4-methylpiperazin-1-yl)-7-(3-(pyrrolidin-1-yl)propoxy)-N-(tetrahydro-2H-pyran-4-yl)quinazolin-4-amine], for which the half-life at 1 μg/mL in data set [1] is more than 1 h. The figures for the Papp at 5 h, 20 μM in the data set “PAMPA permeability” (setting [2]) and in “PAMPA permeability” (setting [3]) were less than 0.055 ×10⁻⁶ cm/s and 0.0299 ×10⁻⁶ cm/s, respectively.
Turning to `COc1cc2c(NC3CCOCC3)nc(N3CCCN(C)CC3)nc2cc1OCCCN1CCCC1` [Compound 237, 6-methoxy-2-(4-methyl-1,4-diazepan-1-yl)-7-(3-(pyrrolidin-1-yl)propoxy)-N-(tetrahydro-2H-pyran-4-yl)quinazolin-4-amine], the half-life at 1 μg/mL in data set [1] was more than 1 h. Also, the results for the Papp at 5 h, 20 μM in the data set “PAMPA permeability” (setting [2]) and in “PAMPA permeability” (setting [3]) were less than 0.055 ×10⁻⁶ cm/s and 0.00431 ×10⁻⁶ cm/s, respectively.
Regarding `COc1cc2c(NC3CCS(=O)(=O)CC3)nc(N3CCC(F)(F)CC3)nc2cc1C#CCN1CCCC1` [Compound 248, 4-((2-(4,4-difluoropiperidin-1-yl)-6-methoxy-7-(3-(pyrrolidin-1-yl)prop-1-yn-1-yl)quinazolin-4-yl)amino)tetrahydro-2H-thiopyran 1,1-dioxide], the half-life at 1 μg/mL in data set [1] came out at 0.63 h. Also, the Papp at 5 h, 20 μM in the data set “PAMPA permeability” (setting [2]) is 0.055 to 1.5 ×10⁻⁶ cm/s; in the data set “PAMPA permeability” (setting [3]), 1.32 ×10⁻⁶ cm/s.
